Results from patent US8236340B2, “Drug formulations for coating medical devices” (REVA Medical, Inc., priority 2003, dated 2012).

Tests used:
[1] = Solubility/dispersibility of drug in the three formulation approaches; assay type: physicochemical; details: all three formulation approaches; all components first dissolved in a volatile solvent such as ethanol
From the text: In all cases the drug was coated onto a balloon from an ethanol solution containing C6-ceramide and the other solvents in each formulation. Once the ethanol evaporated from the surface of the device, the drug was uniformly dispersed over the surface and dissolved within the non-volatile solvent(s). The ethanol was useful in that it decreased the viscosity of the oil/drug mixture thereby promoting uniform coating.

[2] = Physical stability of drug coated on balloon from dimethylsulfoxide/ethanol solution; assay type: physicochemical
From the text: Initially, the deposited lipid form a translucent film, but within an hour or so the deposited material slowly transforms to a white crystallite appearance. The deposition uniformity as measured by microscopy is spotty across the balloon surface. After several days, the white powder continues to transform until it flakes off the balloon and is no longer believed to be in an available state. Decreased availability may be described as the dissolution/deaggregation time of the solid relative to deposition and diffusion within the artery, which prevents it from exerting its effect. Currently, to study the effect of C6-ceramide in animal models, the DMSO/ethanol formulation containing C6-ceramide is coated onto the balloon just prior to insertion into the artery. The role of the solvent is to keep the lipid material in an available film-like state sufficient for it to be rapidly deposited and absorbed quickly in the artery, where it is shown to exert an effect within 15 minutes. However, organic solvents, in which the drug is very soluble, tend to evaporate rapidly and the solvents may also penetrate and affect the balloon performance. Alternative solvents and formulations are needed that permit the drug to remain in a dissolved state yet remain physically stable without changing with time.

[3] = system: smooth muscle cell (SMC) proliferation; details: cited from earlier work

CCCCCCCCCCCCC/C=C/[C@@H](O)[C@H](CO)NC(=O)CCCCC [C6-ceramide]
solubility/dispersibility in formulation approaches [1]: sufficiently soluble and/dispersible
physical form of deposited drug over time [2]: physical form of the drug changes with time
time to initiate activity ([3]; after application of a single dose from an angioplasty balloon): ≤ 15 min
SMC proliferation ([3]; in vitro cell culture and in vivo (rabbit carotid model and pig coronary)): inhibit SMC proliferation
